In assay [1] the test system is ESR1 transcription (luciferase signal in MVLN cells). As to the kind of experiment: Repression of ESR1 transcription, luciferase reporter in MVLN cells. In kind it is cell-based. The conditions noted are these: inhibition of luciferase signal in MVLN cells, arithmetic mean. The method in brief: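 Luminescence from an ER-driven Vitellogenin A2 element–luciferase reporter was measured after 24 h of treatment of MVLN cells, in duplicate wells. Alamar Blue (2 h, 530/590 nm) served as a cell-density control.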

In a further assay the test system is MDA-MB-436 cells. Nature of the assay: Proliferation assay MDA-MB-436, negative control cell line (Alamar Blue, 144 h). In kind it is cell-based. The settings on record: arithmetic mean. Summed up: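 Viability read as Alamar Blue fluorescence (590 nm, 2 h) after 144 h compound exposure at 37 °C, 5% CO2. Cells seeded at 3000 per well in 2.5% FBS DMEM/Ham's F12, dosed a day later over 2.0×10E-9–2.0×10E-5 M in 9 steps with 0.2% DMSO, in triplicate.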
(In general: The colour change of resazurin is a common sign of viable cells or microbes.)

Assay [2] has as its target Recombinant human GST-tagged Kat6b protein (431-end) (Homo sapiens, UniProt Q8WYB5). Nature of the assay: Kat6b activity assay (TR-FRET, acetylation of biotinylated Histone-H4-derived peptide). The assay is classed as biochemical. The conditions noted are these: 30 mins at 22° C., read-out: KAT6B activity assay IC50 [mol/l] (arithmetic mean). (In general: TR-FRET usually uses a lanthanide donor and a delayed reading to cut background.)

In assay [3] the target is Recombinant human His-tagged Kat6a protein (amino acids 194-810) (Homo sapiens (Human), UniProt Q92794). As to the kind of experiment: Kat6a activity assay (TR-FRET, acetylation of biotinylated Histone-H4-derived peptide). In kind it is biochemical. The conditions noted are these: 60 mins at 22° C., read-out: KAT6A-DPF/HAT domain IC50 [mol/l] (arithmetic mean). The method in brief:
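TR-FRET read-out of H4 K8 acetylation, using anti-acetyl-K8 antibody and streptavidin acceptor, after anacardic acid stop; IC50 from four-parameter regression normalized to DMSO. Reaction: recombinant human Kat6a aa 194-810 (insect-cell derived), 220 nM H4 1-24 peptide, 600 nM acetyl-CoA, pH 8, 22 °C, 60 min, compounds 0.01-20 μM.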

The next assay relates to ZR-75-1 cells. Nature of the assay: Proliferation assay ZR-75-1 (Alamar Blue, 144 h). In kind it is cell-based. The settings on record: arithmetic mean, read-out: ZR75-1 proliferation assay, EC50 [M] (arithmetic mean). Summed up: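 Alamar Blue fluorescence (590 nm, 2 h reagent step) measured viability after 144 h compound exposure at 37 °C, 5% CO2. Compounds spanned 2.0×10E-5 to 2.0×10E-9 M in 9 dilutions at 0.2% DMSO, in triplicate, added 24 h after plating 3000 cells/well in RPMI 1640 plus 2.5% FBS.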

In assay [4] the target is Recombinant human GST-tagged Kat6b protein (431-end). Nature of the assay: Kat6b activity assay (TR-FRET, acetylation of biotinylated Histone-H4-derived peptide). The assay is classed as biochemical. The conditions noted are these: 30 mins at 22° C., read-out: KAT6B activity assay IC50 [mol/l] (arithmetic mean).
[5] abbreviates: Homo sapiens, MDA-MB-436, 144 h.

Molecules are shown by their SMILES. Where two headings read alike, the source gives them in different places.

Chain of Recombinant human His-tagged Kat6a protein (amino acids 194-810) (Q92794 194-810): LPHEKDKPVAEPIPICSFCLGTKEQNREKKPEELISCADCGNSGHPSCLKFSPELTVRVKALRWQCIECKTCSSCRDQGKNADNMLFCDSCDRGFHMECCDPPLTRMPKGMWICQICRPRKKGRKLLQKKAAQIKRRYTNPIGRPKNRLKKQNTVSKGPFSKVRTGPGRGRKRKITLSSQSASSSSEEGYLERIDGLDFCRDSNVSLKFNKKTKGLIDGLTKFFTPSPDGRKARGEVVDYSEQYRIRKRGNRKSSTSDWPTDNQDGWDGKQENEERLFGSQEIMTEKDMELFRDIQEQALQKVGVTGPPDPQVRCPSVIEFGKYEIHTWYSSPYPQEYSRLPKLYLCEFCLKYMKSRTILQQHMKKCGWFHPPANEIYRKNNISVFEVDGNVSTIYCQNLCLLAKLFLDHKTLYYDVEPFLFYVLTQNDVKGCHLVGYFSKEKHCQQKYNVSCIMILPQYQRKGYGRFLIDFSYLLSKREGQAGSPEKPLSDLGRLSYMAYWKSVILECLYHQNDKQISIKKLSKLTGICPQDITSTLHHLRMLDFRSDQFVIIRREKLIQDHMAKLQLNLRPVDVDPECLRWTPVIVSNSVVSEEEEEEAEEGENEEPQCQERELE
Chain of Recombinant human GST-tagged Kat6b protein (431-end) (Homo sapiens, UniProt Q8WYB5) (Q8WYB5 whole entry, looked up): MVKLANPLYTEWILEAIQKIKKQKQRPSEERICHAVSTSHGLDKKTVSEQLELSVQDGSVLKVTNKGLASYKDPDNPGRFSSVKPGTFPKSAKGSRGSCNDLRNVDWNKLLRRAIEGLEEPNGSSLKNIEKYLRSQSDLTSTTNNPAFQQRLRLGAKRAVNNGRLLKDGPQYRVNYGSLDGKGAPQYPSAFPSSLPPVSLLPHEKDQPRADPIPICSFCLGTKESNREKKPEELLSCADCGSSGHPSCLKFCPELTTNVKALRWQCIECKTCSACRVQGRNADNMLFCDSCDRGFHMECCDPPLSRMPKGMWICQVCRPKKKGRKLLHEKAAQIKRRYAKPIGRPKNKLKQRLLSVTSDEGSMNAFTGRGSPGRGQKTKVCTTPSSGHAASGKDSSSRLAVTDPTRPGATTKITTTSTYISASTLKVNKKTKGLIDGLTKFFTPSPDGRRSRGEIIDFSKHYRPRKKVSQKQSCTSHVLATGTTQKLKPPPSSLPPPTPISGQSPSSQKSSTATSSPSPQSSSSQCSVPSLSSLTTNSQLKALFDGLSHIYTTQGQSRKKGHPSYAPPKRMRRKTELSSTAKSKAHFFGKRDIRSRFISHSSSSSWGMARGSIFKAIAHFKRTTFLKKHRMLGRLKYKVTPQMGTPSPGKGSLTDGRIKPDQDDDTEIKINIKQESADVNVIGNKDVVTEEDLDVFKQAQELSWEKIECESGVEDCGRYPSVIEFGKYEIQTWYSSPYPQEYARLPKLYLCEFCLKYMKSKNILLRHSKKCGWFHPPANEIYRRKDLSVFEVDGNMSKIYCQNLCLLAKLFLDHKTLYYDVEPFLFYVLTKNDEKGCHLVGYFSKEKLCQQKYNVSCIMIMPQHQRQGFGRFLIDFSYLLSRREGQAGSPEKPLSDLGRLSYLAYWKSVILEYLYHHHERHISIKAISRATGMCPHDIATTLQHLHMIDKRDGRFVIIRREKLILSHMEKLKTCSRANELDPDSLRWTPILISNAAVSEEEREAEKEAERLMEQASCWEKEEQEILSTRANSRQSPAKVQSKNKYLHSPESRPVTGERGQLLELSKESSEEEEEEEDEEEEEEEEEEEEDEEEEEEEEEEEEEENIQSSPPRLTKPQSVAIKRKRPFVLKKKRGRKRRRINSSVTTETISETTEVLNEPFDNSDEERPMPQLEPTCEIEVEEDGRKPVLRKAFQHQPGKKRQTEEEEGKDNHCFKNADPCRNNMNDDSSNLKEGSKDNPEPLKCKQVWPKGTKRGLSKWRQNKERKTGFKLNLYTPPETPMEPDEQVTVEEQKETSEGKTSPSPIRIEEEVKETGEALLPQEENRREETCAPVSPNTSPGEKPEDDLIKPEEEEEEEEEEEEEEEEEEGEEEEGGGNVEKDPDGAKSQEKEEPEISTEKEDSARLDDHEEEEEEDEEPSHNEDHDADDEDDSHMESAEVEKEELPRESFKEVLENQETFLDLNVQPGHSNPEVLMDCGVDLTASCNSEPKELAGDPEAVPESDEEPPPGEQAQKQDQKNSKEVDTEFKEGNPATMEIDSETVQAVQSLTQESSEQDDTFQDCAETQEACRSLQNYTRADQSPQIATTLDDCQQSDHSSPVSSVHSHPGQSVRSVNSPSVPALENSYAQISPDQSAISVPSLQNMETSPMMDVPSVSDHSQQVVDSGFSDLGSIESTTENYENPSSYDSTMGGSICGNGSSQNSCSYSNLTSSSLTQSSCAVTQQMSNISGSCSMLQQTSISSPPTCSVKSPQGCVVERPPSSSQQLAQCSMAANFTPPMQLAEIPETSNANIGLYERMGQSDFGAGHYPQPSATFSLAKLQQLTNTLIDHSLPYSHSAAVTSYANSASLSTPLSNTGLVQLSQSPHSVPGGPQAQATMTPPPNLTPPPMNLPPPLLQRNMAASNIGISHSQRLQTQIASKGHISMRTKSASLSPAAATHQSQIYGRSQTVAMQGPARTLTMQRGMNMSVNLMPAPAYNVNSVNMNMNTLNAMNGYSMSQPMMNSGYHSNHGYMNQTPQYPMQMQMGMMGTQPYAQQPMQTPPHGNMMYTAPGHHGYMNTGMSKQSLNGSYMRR

As to `CC(C)c1ccc(OC2CCC2)c(S(=O)(=O)NC(=O)c2cc3ccc(N(C)C)cc3o2)c1` [Example 184, N-((2-Cyclobutoxy-5-isopropylphenyl)sulfonyl)-6-(dimethylamino)benzofuran-2-carboxamide], the IC50 stood at 22.5 nM in assay [1] (Homo sapiens, MVLN); 47.8 nM in assay [2]; 15.9 nM in assay [3]. For the same compound, the EC50 in the assay with MDA-MB-436 cells (setting [5]) is above 20000 nM; in the assay with ZR-75-1 cells (Homo sapiens, ZR-75-1, 144 h) it was 6.98e-07 M.
On to `CC(C)c1ccc(OCC2CC2(F)F)c(S(=O)(=O)NC(=O)c2cc3ccc(N(C)C)cc3o2)c1` (racemic) [Example 186, N-((2-((2,2-difluorocyclopropyl)methoxy)-5-isopropylphenyl)sulfonyl)-6-(dimethylamino)benzofuran-2-carboxamide (rac)], for which the IC50 was 23.6 nM in assay [1] (Homo sapiens, MVLN); 26.1 nM in assay [2]; 8.47 nM in assay [3]. In addition, the EC50 was above 20000 nM in the assay on MDA-MB-436 cells (setting [5]) and 5.59e-08 M in the assay with ZR-75-1 cells (Homo sapiens, ZR-75-1, 144 h).
As to `CN(C)c1ccc2cc(C(=O)NS(=O)(=O)c3cc(C(C)(C)C)ccc3OC3CCC3)oc2c1` [Example 182, N-[(5-(tert-butyl)-2-cyclobutoxyphenyl)sulfonyl]-6-(dimethylamino)benzofuran-2-carboxamide], the IC50 in assay [1] (Homo sapiens, MVLN) turned out to be 22 nM; in assay [4] it was 11.9 nM; in assay [3], 2.67 nM. Further, the EC50 is above 20000 nM with MDA-MB-436 cells (setting [5]) and 6.1e-08 M in the assay on ZR-75-1 cells (Homo sapiens, ZR-75-1, 144 h).
The matching figures for `CN(C)c1ccc2cc(C(=O)NS(=O)(=O)c3cc(C(C)(C)C)ccc3OCC(F)(F)F)oc2c1` [Example 181, N-[(5-(tert-butyl)-2-(2,2,2-trifluoroethoxy)phenyl)sulfonyl]-6-(dimethylamino)benzofuran-2-carboxamide]: 30.1 nM, 43.5 nM, 11.8 nM, above 20000 nM and 9.93e-08 M.
Regarding `CN(C)c1cc(C(F)(F)F)c2cc(C(=O)NS(=O)(=O)c3ccccc3-c3ccccc3)oc2c1` [Example 193, N-([1,1′-biphenyl]-2-ylsulfonyl)-6-(dimethylamino)-4-(trifluoromethyl)benzofuran-2-carboxamide], the IC50 in assay [1] (Homo sapiens, MVLN) was 1690 nM; in assay [4], 12.8 nM; in assay [3], 7.14 nM. In addition, the EC50 with MDA-MB-436 cells (setting [5]) is above 20000 nM; in the assay on ZR-75-1 cells (Homo sapiens, ZR-75-1, 144 h) it was 6.55e-06 M.
The matching figures for `Cc1ccnc2c(S(=O)(=O)NC(=O)c3cc4ccc(N(C)C)cc4o3)cccc12` [Example 91, 6-(Dimethylamino)-N-(4-methylquinoline-8-sulfonyl)-1-benzofuran-2-carboxamide]: 365 nM, 92.2 nM, 74.2 nM, above 20000 nM and 7.79e-07 M.
For the compound `CCOc1ccc([N+](=O)[O-])cc1S(=O)(=O)NC(=O)c1cc2ccc(N(C)C)cc2o1` [Example 88, 6-(Dimethylamino)-N-(2-ethoxy-5-nitrobenzene-1-sulfonyl)-1-benzofuran-2-carboxamide], the IC50 in assay [1] (Homo sapiens, MVLN) came out at 256 nM; in assay [4] it was 205 nM; in assay [3], 105 nM. The EC50 in the assay with MDA-MB-436 cells (setting [5]) is 4650 nM; in the assay with ZR-75-1 cells (Homo sapiens, ZR-75-1, 144 h) it was 3.2e-07 M.
On the same counts, the results for `COc1ccccc1S(=O)(=O)NC(=O)c1cc2ccc(N(C)C)cc2o1` [Example 114, 6-(Dimethylamino)-N-(2-methoxybenzene-1-sulfonyl)-1-benzofuran-2-carboxamide] are 58 nM, 150 nM, 114 nM, above 20000 nM and 1.07e-07 M.
The matching figures for `COc1ccc(Cl)c(S(=O)(=O)NC(=O)c2cc3ccc(N(C)C)cc3o2)c1` [Example 139, N-(2-Chloro-5-methoxybenzene-1-sulfonyl)-6-(dimethylamino)-1-benzofuran-2-carboxamide]: 1370 nM, 369 nM, 329 nM, above 20000 nM and 7.07e-07 M.
On the same counts, the results for `CN(C)c1ccc2cc(C(=O)NS(=O)(=O)c3ccccc3OCC(F)F)oc2c1` [Example 75, N-[2-(2,2-Difluoroethoxy)benzene-1-sulfonyl]-6-(dimethylamino)-1-benzofuran-2-carboxamide] are 130 nM, 246 nM, 163 nM, above 20000 nM and 1.65e-07 M.
As for `CC(C)Oc1cccc(Cl)c1S(=O)(=O)NC(=O)c1cc2ccc(N(C)C)cc2o1` [Example 89, N-{2-chloro-6-[(propan-2-yl)oxy]benzene-1-sulfonyl}-6-(dimethylamino)-1-benzofuran-2-carboxamide], the IC50 in assay [1] (Homo sapiens, MVLN) amounted to 279 nM; in assay [4] it was 172 nM; in assay [3], 131 nM. In addition, the EC50 in the assay with MDA-MB-436 cells (setting [5]) was above 20000 nM; in the assay on ZR-75-1 cells (Homo sapiens, ZR-75-1, 144 h), 4.45e-07 M.
The matching figures for `CC(C)Cc1ccc2cccc(S(=O)(=O)NC(=O)c3cc4ccc(N(C)C)cc4o3)c2n1` [Example 93, 6-(Dimethylamino)-N-[2-(2-methylpropyl)quinoline-8-sulfonyl]-1-benzofuran-2-carboxamide]: 457 nM, 173 nM, 100 nM, above 20000 nM and 8.56e-07 M.
`CCN(C)c1ccc2cc(C(=O)NS(=O)(=O)c3ccccc3)oc2c1` [Example 2, N-(Benzenesulfonyl)-6-[ethyl(methyl)amino]benzofuran-2-carboxamide]: the IC50 in assay [1] (Homo sapiens, MVLN) was 3500 nM; in assay [4] it was 5700 nM; in assay [3] it was 4800 nM. The EC50 in the assay on MDA-MB-436 cells (setting [5]) is above 20000 nM; in the assay on ZR-75-1 cells (Homo sapiens, ZR-75-1, 144 h) it was 1.08e-05 M.
Turning to `CN(C)c1ccc2cc(C(=O)NS(=O)(=O)c3cccc4c3OC(F)(F)C(F)(F)O4)oc2c1` [Example 134, 6-(Dimethylamino)-N-(2,2,3,3-tetrafluoro-2,3-dihydro-1,4-benzodioxine-5-sulfonyl)-1-benzofuran-2-carboxamide], the results for the IC50 in assay [1], in assay [2] and in assay [3] were 76.8 nM, 25.9 nM and 30.7 nM, respectively. The results for the EC50 in the assay with MDA-MB-436 cells and in the assay on ZR-75-1 cells were above 20000 nM and 1.26e-07 M, respectively.
`Cc1ccc2cccc(S(=O)(=O)NC(=O)c3cc4c(C(F)(F)F)cc(N(C)C)cc4o3)c2n1` [Example 196, 6-(Dimethylamino)-N-((2-methylquinolin-8-yl)sulfonyl)-4-(trifluoromethyl)benzofuran-2-carboxamide]: the IC50 in assay [1] (Homo sapiens, MVLN) turned out to be 295 nM; in assay [4] it was 1.78 nM; in assay [3], 1.47 nM. The EC50 was above 14100 nM in the assay with MDA-MB-436 cells (setting [5]) and 2.12e-06 M in the assay with ZR-75-1 cells (Homo sapiens, ZR-75-1, 144 h).
On the same counts, the results for `COc1cccc(C(F)(F)F)c1S(=O)(=O)NC(=O)c1cc2ccc(N(C)C)cc2o1` [Example 132, 6-(Dimethylamino)-N-[2-methoxy-6-(trifluoromethyl)benzene-1-sulfonyl]-1-benzofuran-2-carboxamide] are 80.1 nM, 72.7 nM, 134 nM, above 20000 nM and 1.05e-07 M.

Source of the values: patent publication US12357603B2, “Acyl sulfonamides for treating cancer” (Bayer Aktiengesellschaft, priority 2019, dated 2025).
